# Assay results published in patent publication US5543392A, “Digestive tract cell activating agent of EGF and lactoferrin” (Morinaga Milk Industry Co., Ltd., priority 1992, dated 1996).
# How the values were obtained:
# IEC18 cells [1] = assay: Test 3: proliferation of small intestine epithelial cells (cell count by hemocytometer); format: cell-based, rat; conditions: single addition of 10 ng/ml EGF; ten days culture; versus control group with no addition
# Experimental: ICE18 cells (the same ones as in the Test 1) were inoculated onto a 24-well culture plate by 5,000 cells per well, and were cultured for ten days with 1% FBS DMEM (0.5 ml) containing the following test subjects. During this test period, the medium was replaced on the third and the sixth days, and the number of cells was measured on the third, the sixth and the tenth days. The number of cells was counted by a hemocytometer after treating the cells with 0.25% trypsin solution and suspending them in the solution.
# The test subjects included a sample added with nothing, a sample added with 10 ng/ml EGF, a sample added with 50 μg/ml bLf or bLf-Hy, and a sample added with 10 ng/ml EGF and 50 μg/ml bLf or bLf-Hy.
# IEC18 cells [2] = assay: Test 1: DNA synthesis acceleration activity of EGF (3H-thymidine incorporation); format: cell-based, rat; conditions: for Quantity of incorporated 3H thymidine, average value (n = 4): 18 h, 1% FBS-DMEM
# Experimental: This test was carried out to determine an optimum concentration for DNA synthesis acceleration activity of EGF relative to small intestine epithelial cells.
# IEC18 cells (purchased from the American Type Culture Collection) which are epithelial crypt-cells of rat small intestine were inoculated into a 24-well culture plate by 10,000 cells per hole and cultured with Dulbecco modified Eagle's medium containing 10% fetal bovine serum (hereinafter abbreviated as "10% FBS-DMEM") until the cells became confluence (1 ml of medium was used per well). Then, the medium was replaced with 1% FBS-DMEM culture was conducted for another three days to introduce the cell cycle into the resting phase. The medium was replaced with of 1% FBS-DMEM (0.5 ml) containing EGF at various concentrations and culture was conducted for 18 hours. Then, the medium was replaced with DME (0.35 ml) containing ^3 H-thymidine (tritium labeling: thymidine 1 micro curie/ml), the cultuure was conducted for another two hours. The result cells were rinsed twice with phosphate-buffered saline [PBS (-), 2 ml], then, ice-cooled 5% trifluoroacetic acid (5% TFA, 2 ml) was added. This was stored in a refrigerator for an hour. The cells were washed twice with 5% TFA (2 ml) and 1N NaOH (0.4 ml) was added. By holding this at 37° C. for an hour, the cells were dissolved. Then, the solution was neutralized by adding 6N HCl (0.08 ml), and therefore, the quantity of ^3 H-thymidine incorporated into DNA was measured by means of a liquid scintillation counter.
substance,measurement,setting,value
"EGF: Commercially available mouse submaxillary gland originating EGF (manufactured by Takara Shuzo Company) (NSYPGCPSSYDGYCLNGGVCMHIESLDSYTCNCVIGYSGDRCQTRDLRWWELR; not fully specified; Epidermal growth factor; UniProt P01132 977-1029, looked up)",number of cells (FIGS. 3 and 4),IEC18 cells [1],absence of effect
same,"Quantity of incorporated 3H thymidine, average value (n = 4)",IEC18 cells [2]; EGF concentration 0.08 ng/ml,17874 cpm
same,"Quantity of incorporated 3H thymidine, average value (n = 4)",IEC18 cells [2]; EGF concentration 0.2 ng/ml (so in the source),25398 cpm
same,"Quantity of incorporated 3H thymidine, average value (n = 4)",IEC18 cells [2]; EGF concentration 0.4 ng/ml,19644 cpm
same,"Quantity of incorporated 3H thymidine, average value (n = 4)",IEC18 cells [2]; EGF concentration 10.0 ng/ml,26152 cpm
same,"Quantity of incorporated 3H thymidine, average value (n = 4)",IEC18 cells [2]; EGF concentration 50.0 ng/ml,22665 cpm
same,optimum working concentration of EGF for DNA synthesis,IEC18 cells [2]; IEC18 cells,10 ng/mL
